Assays:
[1] = tested on: oligodendrocyte progenitor cells (OPC); test: 96-well OPC screening platform: oligodendrocyte generation from primary OPCs; format: cell-based, mouse; settings: for EC50: Mus musculus, Oligodendrocyte progenitor cell
Protocol: 1) an optimized method to produce primary culture of highly pure mouse oligodendrocyte progenitor cells (OPC); and
2) an algorithm to identify and quantify oligodendrocytes in 96-well format.
(§1) Briefly, the high-throughput small molecule screen included a primary screening where small drug-like organic compounds ([…]) are added to cells seeded on a 96-well plate an incubated. The cells are then visually screened for oligodendrocyte precursor morphology changes. In a secondary screening, differentiation induced by selected compounds was further validated by fluorescence microscopy. Increased fluorescence in treated oligodendrocyte cells generated from a PIp-EGFP transgenic mouse was indicative of cell maturation. Further oligodendrocyte precursor maturation in response to selected compounds was assessed by induction of myelin protein expression as determined by immunocytochemistry and western blot.
Using the 96-well OPC-screening platform, a CNS-bias library of 20,000 drug-like small molecule compounds (Cambridge Co., San Diego, Calif.) was screened, using DMSO as a negative control and T3 (triiodothyronine) as a positive control. Initial screening was at 10 μM, and 390 primary hits were identified. Further testing confirmed that 57 compounds produced at least 50% response of T3.

[2] = MTT assay (viability); format: cell-based; settings: up to 30 μM
[3] = Preliminary pharmacokinetic analysis, i.p. injection, LC/MS/MS of plasma and brain; format: in vivo; settings: i.p. 10 mg/kg, mice
[4] = tested on: cuprizone mouse model of demyelination/remyelination; test: Cuprizone/rapamycin demyelination and remyelination model; format: in vivo, mice; settings: i.p. daily 6 weeks, 10 mg/kg, vs control
From the text: 2016; 283(Pt A): 330-340, which is incorporated herein by reference in its entirety. […] At the end of the treatment period, mice were perfused and different tissues analyzed for remyelination. In cortex and hippocampus, PLP antibody staining was used to assess remyelination. In corpus callosum, the number of myelinated axons in semi-thin (1 μm) Epon sections was quantified. […] This in vivo animal data further validates a strategy of using cell-based phenotypic screening to identify remyelination compounds.

[5] = tested on: OPCs (PLP-EGFP); test: Immunostaining of oligodendrocyte markers PLP and MBP in treated OPCs; format: cell-based, mouse; settings: 4 days treatment
Protocol: as §1
Finally, similar activation of oligodendrocyte markers was observed when wild-type OPCs were treated with the “hit” compounds, eliminating the possibility that expression of the EGFP construct affected the results.

[6] = Solubility; format: physicochemical

Compound Cc1cc(Cl)ccc1OCCOCCN1CCC(C)CC1 [CN918] has an EC50 ([1]; Table 1, OPC differentiation) of 193 nM.
In the case of CCc1cc(OCCOCCN2CCC(C)CC2)ccc1Cl [CN049], the EC50 ([1]; Table 1, OPC differentiation) is reported as 165 nM.
Cc1cc(Cl)cc(C)c1OCCCCN1CCOCC1 [CN644] showed an EC50 ([1]; Table 2, OPC differentiation) of 270 nM.
Compound CC1CCC(N2CCN(Cc3cccc(Br)c3)CC2)CC1 (centres unmarked) [CN007] has an EC50 [1] of 40 nM.
Cc1cc(Cl)cc(Cl)c1OCCOCCN1CCN(C)CC1 [CN265] gave an EC50 ([1]; Table 1, OPC differentiation) of 540 nM.
In the case of CC1CCN(CCOCCOc2c(Cl)cc(Cl)cc2Cl)CC1 [CN045], the viability [2] is reported as > 80%, the Kp ([3]; C57BU6J, mouse, ip, brain homogenate vs. plasma, read-out: brain/plasma ratio) is reported as 0.8 and the “time of peak concentration following injection” value [3] is reported as ~2 h. For the same compound, the “remyelination in corpus callosum (number of myelinated axons)” value ([4]; p<0.01) was “significantly increased remyelination”, the “remyelination in cortex (PLP antibody staining)” value ([4]; p<0.01) was “significantly increased remyelination” and the “remyelination in hippocampus (PLP antibody staining)” value ([4]; p<0.05) was “significantly increased remyelination”. The “co-labeling of EGFP+ cells by PLP and MBP antibodies” value [5] was “All EGFP+ cells were co-labeled by PLP and MBP antibodies”, the EC50 ([1]; Table 1, OPC differentiation) was 40 nM and the “increase in the percentage of oligodendrocytes compared with DMSO controls” value ([1]; dose-response, FIG. 3B) was ~4 fold. The “efficacy compared with benztropine, clemastine or T3” value ([1]; same OPC assay, multiple concentrations, FIG. 2) was “almost twice the efficacy” and the solubility [6] was > 500 µM.
Cc1ccc(OCCOCCN2CCC(C)CC2)c(Cl)c1 [CN570] gave an EC50 ([1]; Table 1, OPC differentiation) of 200 nM.
For Fc1cc(Cl)ccc1OC[C@@H]1CCCN2CCCC[C@H]12 [CN566], the EC50 ([1]; Table 2, OPC differentiation) was 340 nM.
Cc1cc(Cl)cc(C)c1OCCCCN1CCC[C@H](C)C1 [CN329] gave an EC50 ([1]; Table 2, OPC differentiation) of 42 nM.
With Cc1cc(Cl)cc(C)c1OCCCCN1CCCCC1 [CN478] the EC50 ([1]; Table 2, OPC differentiation) was 78 nM.

— patent publication US20230257350A1, “COMPOUNDS AND METHODS OF PROMOTING OLIGODENDROCYTE PRECURSOR DIFFERENTIATION” (The Cleveland Clinic Foundation, priority 2020, published 2023)
